Reference: PMC12040169 (PLOS Biology, 2025)

Experiment: in vitro
Settings: human, hela cells, % viability

Row | SMILES | viability at 28.5 h, 10 µM [%]
1 | Cc1ccc(S(=O)(=O)c2cccc(S(N)(=O)=O)c2)cc1S(N)(=O)=O [CBK264535] | 91.7
2 | CC1CCN(S(=O)(=O)c2ccc(NC(=O)c3ccc(Br)o3)cc2)CC1 [CBK264536] | 101
3 | CN(C)S(=O)(=O)c1ccc(C(=O)C2=C(O)C(=O)N(CCN3CCOCC3)C2c2ccccc2)cc1 (centres unmarked) [CBK264540] | 111
4 | Cc1ccc(C)c(-c2nn(-c3ccccc3)cc2/C=C2\SC(=S)N(CC(=O)O)C2=O)c1 [CBK264541] | 98.4
5 | NS(=O)(=O)c1cc(C(=O)OCC(=O)c2ccccc2)c(Cl)cc1Cl [CBK264542] | 90.8
6 | c1cncc(-c2nnc(SCc3nc4ccccc4[nH]3)o2)c1 [CBK264543] | 98.1
7 | COc1ccccc1N(CC(O)Cn1nc(C)cc1C)S(=O)(=O)c1ccccc1 (centres unmarked) [CBK264546] | 100
8 | O=C(C1=C(O)C(=O)N(Cc2cccnc2)C1c1cccnc1)c1cccs1 (centres unmarked) [CBK264547] | 119
9 | COc1cccc(NC(=S)NCCCN2CCOCC2)c1 [CBK264548] | 123
10 | O=C(O)CCN1C(=O)C(O)=C(C(=O)c2ccc(Cl)cc2)C1c1ccccc1[N+](=O)[O-] (centres unmarked) [CBK264553] | 98.8
11 | O=C(C1=C(O)C(=O)N(CCCN2CCOCC2)C1c1cccnc1)c1cccs1 (centres unmarked) [CBK264555] | 113
12 | CN1CCc2c(sc3nc(SCc4cccc5ccccc45)n(-c4ccccc4)c(=O)c23)C1 [CBK264556] | 124
13 | O=C(Nc1ccccc1[N+](=O)[O-])c1cc(S(=O)(=O)NCc2ccco2)ccc1Cl [CBK264557] | 94.4
14 | CC1(C)NC(=O)N(CC(O)CN2CCCC2)C1=O (centres unmarked) [CBK264558] | 96.3
15 | Cc1ccc(C2C(C(=O)c3cccs3)=C(O)C(=O)N2CCN2CCOCC2)o1 (centres unmarked) [CBK264559] | 91.1
16 | O=C(NCCCO)c1ccc(/C=N/O)nc1 [CBK264560] | 97.7
17 | COc1ccc(OC(=O)c2cc(S(=O)(=O)N3CCCCCC3)ccc2Cl)cc1 [CBK264562] | 95.9
18 | CC1(C)CC(NCC(O)COc2cc(C(C)(C)C)c(O)c(C(C)(C)C)c2)CC(C)(C)N1 (centres unmarked) [CBK264564] | 124
19 | CCOC(=O)c1c(NC(=O)CN2CC(C)OC(C)C2)sc2c1CCC(C)C2 (centres unmarked) [CBK264572] | 107
20 | Cc1ccc(NC(=S)N2CCN(C/C=C/c3ccccc3)CC2)cc1 [CBK264574] | 98.9
21 | O=C(O)c1cc(S(=O)(=O)N2CCOCC2)c(Cl)cc1NC1CCCCC1 [CBK264576] | 97.8
22 | CCN(CC)S(=O)(=O)c1ccc(C)c(C(=O)Oc2cccc(-c3cnc4ccccc4n3)c2)c1 [CBK264577] | 85.8
23 | CC1(C)NC(=O)N(CC(O)CN(C2CCCCC2)C2CCCCC2)C1=O (centres unmarked) [CBK264578] | 101
24 | CCOc1ccc(-n2c(SCc3nc4ccccc4[nH]3)nc3sc4c(c3c2=O)CCCC4)cc1 [CBK264581] | 103
25 | CC(NC(=O)/C(=C\c1ccc(Cl)cc1)NC(=O)c1ccccc1Br)C(=O)O (centres unmarked) [CBK264582] | 91.4
26 | CN(C)CCN1C(=O)C(O)=C(C(=O)c2cccs2)C1c1ccc([N+](=O)[O-])cc1 (centres unmarked) [CBK264584] | 92.6
27 | O=C(Nc1cccc2ccccc12)/C(=C\c1ccco1)NC(=O)c1ccc(Br)cc1 [CBK264587] | 104

Row | SMILES | viability at 28.5 h, 10 µM [%]
28 | CN(C)CCCN1C(=O)C(O)=C(C(=O)c2ccc(Br)cc2)C1c1cccnc1 (centres unmarked) [CBK264589] | 105
29 | O=C(C1=C(O)C(=O)N(CCCn2ccnc2)C1c1cccc([N+](=O)[O-])c1)c1cccs1 (centres unmarked) [CBK264591] | 95.9
30 | O=C(CC1S/C(=N/N=C/c2ccc(-c3cc([N+](=O)[O-])ccc3Cl)o2)NC1=O)Nc1ccccc1 (centres unmarked) [CBK264592] | 95.3
31 | Cc1ccc(C(=O)C2=C(O)C(=O)N(Cc3cccnc3)C2c2cccc([N+](=O)[O-])c2)cc1 (centres unmarked) [CBK264593] | 89.3
32 | Cc1sc2nc(SCc3nc4ccccc4[nH]3)n(-c3ccc(Cl)c(Cl)c3)c(=O)c2c1C [CBK264594] | 102
33 | COc1c(Cl)ccc(Cl)c1C(=O)OCC(=O)O [CBK264596] | 115
34 | COc1ccc(C2=NN(c3ccc([N+](=O)[O-])cc3)C(=O)/C2=C/NCc2ccc3c(c2)OCO3)cc1 [CBK264598] | 84.1
35 | S=C(NCCCN1CCOCC1)Nc1ccccc1Cl [CBK264599] | 100
36 | O=C(C1=C(O)C(=O)N(CCCn2ccnc2)C1c1ccncc1)c1ccc(F)cc1 (centres unmarked) [CBK264601] | 93.7
37 | O=C(CN(c1cc(C(F)(F)F)ccc1Cl)S(=O)(=O)c1ccccc1)NCc1cccnc1 [CBK264607] | 94.4
38 | C1=CC2CC1CC2CN1CCC(N(CCc2ccccc2)Cc2ccccc2)CC1 (centres unmarked) [CBK264613G] | 87.7
39 | CCOc1cc(/C=C2\SC(=S)N(Cc3cccnc3)C2=O)ccc1OCc1cccc(F)c1 [CBK264615] | 112
40 | O=C(COc1ccccc1/C=C1/NC(=O)NC1=O)Nc1ccccc1 [CBK264620] | 99.3
41 | O=[N+]([O-])c1ccc(CN2CCC(N3CCN(CCO)CC3)CC2)cc1 [CBK264621G] | 92.6
42 | CN(Cc1ccccc1)C1CCN(Cc2ccccn2)CC1 [CBK264622G] | 107
43 | COc1cc(/C=C2\SC(=S)N(Cc3cccnc3)C2=O)ccc1OCc1cccc2ccccc12 [CBK264624] | 112
44 | CCOc1ccccc1NC(=O)CN(c1cc(C(F)(F)F)ccc1Cl)S(C)(=O)=O [CBK264627] | 84.7
45 | O=C(CN1C(=O)S/C(=C\c2ccccc2OCc2ccccc2)C1=O)c1ccc(Cl)cc1 [CBK264628] | 92.5
46 | Cc1cc(C)nc(SCc2nc3ccc([N+](=O)[O-])cc3[nH]2)n1 [CBK264634] | 85.3
47 | COc1ccc(C(=O)C2=C(O)C(=O)N(Cc3cccnc3)C2c2ccc(N(C)C)cc2)cc1 (centres unmarked) [CBK264635] | 85.9
48 | O=C(O)c1ccc(COc2ccc(/C=C3\SC(=S)N(Cc4cccnc4)C3=O)cc2)cc1 [CBK264637] | 101
49 | O=S(=O)(NC1c2cccc3cccc(c23)C1Sc1ncccn1)c1ccc(Cl)cc1 (centres unmarked) [CBK264638] | 94.3
50 | CC1CC(C)CN(C2CCN(Cc3ccccn3)CC2)C1 (centres unmarked) [CBK264639G] | 99.4
51 | O=C(c1cc(-c2ccc(Cl)cc2)nc2ccccc12)n1nnc2ccccc21 [CBK264640] | 101
52 | O=C(CSc1nc2cccnc2[nH]1)Nc1cc(Cl)ccc1Cl [CBK264644] | 101
53 | COC(=O)c1ccc(NC(=O)CC2Sc3ccc(C(F)(F)F)cc3NC2=O)cc1 (centres unmarked) [CBK264645] | 110
54 | O=C(C(Cc1ccccc1)N1C(=O)C2CCCCC2C1=O)N1CCN(Cc2ccc3c(c2)OCO3)CC1 (centres unmarked) [CBK264648] | 102

Row | SMILES | viability at 28.5 h, 10 µM [%]
55 | CCOc1ccc(C(=O)C2=C(O)C(=O)N(CCN3CCOCC3)C2c2ccc(N(C)C)cc2)c(C)c1 (centres unmarked) [CBK264650] | 92.7
56 | Cc1cccc(OCc2nnc(SCC(=O)NC3CCCCC3)o2)c1 [CBK264652] | 96.3
57 | CC(=O)Nc1ccc(S(=O)(=O)N2CCC(N3CCOCC3)CC2)cc1 [CBK264653G] | 116
58 | CCN(Cc1ccccc1)C1CCN(Cc2cccc(OC)c2)CC1 [CBK264654G] | 99.2
59 | COc1cc(CN2CCC(N3CCN(c4ccccc4)CC3)CC2)ccc1OCc1ccccc1 [CBK264655G] | 95.6
60 | Cc1ccc(S(=O)(=O)N2CCC(N3CCN(CCO)CC3)CC2)cc1 [CBK264656G] | 96.8
61 | COc1ccc(C(=O)C2=C(O)C(=O)N(Cc3cccnc3)C2c2cccc([N+](=O)[O-])c2)cc1 (centres unmarked) [CBK264661] | 99.5
62 | CN(C)CC(=O)Nc1ccc(Br)cc1C(=O)c1ccccc1Cl [CBK264663F] | 91.4
63 | O=C(CN(Cc1ccccc1)S(=O)(=O)c1cc(Cl)ccc1Cl)Nc1cccc(F)c1 [CBK264664] | 89.3
64 | CN(C)S(=O)(=O)c1ccc(C(=O)C2=C(O)C(=O)N(Cc3cccnc3)C2c2ccccc2)cc1 (centres unmarked) [CBK264667] | 100
65 | CN(C)CCN1C(=O)C(O)=C(C(=O)c2ccc(S(=O)(=O)N3CCOCC3)cc2)C1c1ccccc1 (centres unmarked) [CBK264668] | 100
66 | CC(Sc1ccc(Cl)cc1)C(=O)Nc1ccc(CSc2ccccc2)cc1 (centres unmarked) [CBK264670] | 93.2
67 | O=C(O)c1ccc(COc2ccc(/C=C3\SC(=S)N(Cc4cccnc4)C3=O)cc2Cl)cc1 [CBK264672] | 91.9
68 | O=C1/C(=C/c2ccc3c(c2)OCO3)SC(=S)N1CCCC(=O)N1CCCc2ccccc21 [CBK264676] | 98.2
69 | O=C(NC(Cc1ccccc1)C(=O)O)c1ccc(Cl)cc1 (centres unmarked) [CBK264677] | 96.1
70 | CC1=NN(c2ccc(S(N)(=O)=O)cc2)C(=O)/C1=C/c1ccc(-c2ccc3c(c2)COC3=O)o1 [CBK264678] | 95.6
71 | CN(C)CCN1C(=O)C(O)=C(C(=O)c2ccc(S(=O)(=O)N3CCOCC3)cc2)C1c1ccc(F)cc1 (centres unmarked) [CBK264683] | 104
72 | c1ccc(N2CCN(C3CCN(Cc4ccccn4)CC3)CC2)cc1 [CBK264684G] | 110
73 | Cc1nc(N2CCOCC2)nc(Nc2ccc(Cl)cc2)c1[N+](=O)[O-] [CBK264685] | 87.5
74 | Clc1cccc(CN2CCC(N3CCN(c4ccccc4)CC3)CC2)c1 [CBK264690G] | 98.7
75 | CN(C)CCN1C(=O)C(O)=C(C(=O)c2ccc(S(=O)(=O)N3CCOCC3)cc2)C1c1ccc(Br)cc1 (centres unmarked) [CBK264693] | 93.5
76 | CC1CC(C)CN(C(=O)Cn2c(-c3nonc3N)nc3ccccc32)C1 (centres unmarked) [CBK264694] | 89.7
77 | O=C(C1=C(O)C(=O)N(Cc2cccnc2)C1c1cccc(Oc2ccccc2)c1)c1ccc(Cl)cc1 (centres unmarked) [CBK264698] | 86.6
78 | O=C(Cn1c(-c2cncs2)nc2ccccc21)NCc1ccc2c(c1)OCO2 [CBK264699] | 95.5
79 | CN(C)S(=O)(=O)c1ccc(C(=O)C2=C(O)C(=O)N(CCN3CCCCC3)C2c2cccnc2)cc1 (centres unmarked) [CBK264700] | 99.9
80 | Cc1ccccc1OCC(=O)Oc1ccc(-c2cnc3ccccc3n2)cc1 [CBK264703] | 100
